Measurements as given in patent US10722501B2 (BAYER AKTIENGESELLSCHAFT, priority 2016, dated 2020).

Target: T1, recombinant full-length human prolyl endopeptidase (PREP) (Homo sapiens, UniProt P48147)
T1 construct: To recombinant full-length human prolyl endopeptidase (PREP, R&D-Systems, 4308-SE); purchased R&D-Systems 4308-SE
T1 sequence (P48147 1-710): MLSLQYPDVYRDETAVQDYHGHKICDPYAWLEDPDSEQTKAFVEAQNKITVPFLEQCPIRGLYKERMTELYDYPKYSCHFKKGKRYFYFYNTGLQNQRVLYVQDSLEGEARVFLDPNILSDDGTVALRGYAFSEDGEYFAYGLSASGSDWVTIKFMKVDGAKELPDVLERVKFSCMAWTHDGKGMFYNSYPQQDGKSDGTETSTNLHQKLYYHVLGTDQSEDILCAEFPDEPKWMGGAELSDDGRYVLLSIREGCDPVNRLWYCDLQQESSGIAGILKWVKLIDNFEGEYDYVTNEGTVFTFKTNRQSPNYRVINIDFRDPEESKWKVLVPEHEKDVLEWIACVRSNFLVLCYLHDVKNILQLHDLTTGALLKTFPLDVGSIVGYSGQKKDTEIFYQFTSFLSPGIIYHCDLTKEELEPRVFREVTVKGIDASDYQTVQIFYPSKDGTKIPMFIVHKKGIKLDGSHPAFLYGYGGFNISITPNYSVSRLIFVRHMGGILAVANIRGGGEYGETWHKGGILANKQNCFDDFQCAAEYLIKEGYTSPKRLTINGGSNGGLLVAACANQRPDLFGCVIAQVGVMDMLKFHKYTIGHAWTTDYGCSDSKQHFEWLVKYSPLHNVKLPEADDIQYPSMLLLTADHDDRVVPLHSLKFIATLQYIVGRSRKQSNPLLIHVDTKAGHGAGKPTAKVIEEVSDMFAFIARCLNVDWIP
Test: Biochemical human prolyl endopeptidase (PREP) assay with fluorescently labelled substrate
Details: substrate Z-Gly-Pro-AMC 50 μM, 32° C., 60 min; some as mean values from multiple independent determinations
How it was run: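 Initial rates of fluorescence increase from 50 μM Z-Gly-Pro-AMC cleavage (ex 360/em 465 nm, 60 min, 32° C) give percent PREP activity versus no-compound control, and IC50 is interpolated. Enzyme used at 0.4 nM (final, example) in Tris pH 7.5 with EDTA, GSH, BSA and Brij-35; compounds span 1 nM to 30 μM.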

Row | IC50 [pM] | SMILES
1 | 3700 | O=C([C@@H]1CCCc2nn(Cc3ccc(C(F)(F)F)nc3)c(=O)n21)N1CC(F)C1 [Example 429, (5S)-5-[(3-Fluoroazetidin-1-yl)carbonyl]-2-{[6-(trifluoromethyl)pyridin-3-yl]methyl}-5,6,7,8-tetrahydro[1,2,4]triazolo[4,3-a]pyridin-3(2H)-one]
2 | 29000 | O=C([C@@H]1CCCc2nn(Cc3csc(C(F)(F)F)n3)c(=O)n21)N1CCC(F)(F)C1 [Example 364, (5S)-5-[(3,3-Difluoropyrrolidin-1-yl)carbonyl]-2-{[2-(trifluoromethyl)-1,3-thiazol-4-yl]methyl}-5,6,7,8-tetrahydro[1,2,4]triazolo[4,3-a]pyridin-3(2H)-one]
3 | 13000 | O=C([C@@H]1CCCc2nn(Cc3cccc(C(F)(F)F)n3)c(=O)n21)N1CC(F)C1 [Example 369, (5S)-5-[(3-Fluoroazetidin-1-yl)carbonyl]-2-{[6-(trifluoromethyl)pyridin-2-yl]methyl}-5,6,7,8-tetrahydro[1,2,4]triazolo[4,3-a]pyridin-3(2H)-one]
4 | 20000 | O=C(C1C(C(F)(F)F)CCc2nn(Cc3ncc(Cl)cc3F)c(=O)n21)N1CC[C@H](F)C1 (mixture of isomers) [Example 294, (5RS,6RS)-2-[(5-Chloro-3-fluoropyridin-2-yl)methyl]-5-{[(3S)-3-fluoropyrrolidin-1-yl]carbonyl}-6-(trifluoromethyl)-5,6,7,8-tetrahydro[1,2,4]triazolo[4,3-a]pyridin-3(2H)-one]
5 | 210 | O=C([C@@H]1CCCc2nn(Cc3ccc(F)cc3Cl)c(=O)n21)N1CCC(F)(F)C1 [Example 477, (5S)-2-(2-Chloro-4-fluorobenzyl)-5-[(3,3-difluoropyrrolidin-1-yl)carbonyl]-5,6,7,8-tetrahydro[1,2,4]triazolo[4,3-a]pyridin-3(2H)-one]
6 | 660 | CC1Cc2nn(Cc3ccc(C(F)(F)F)nc3)c(=O)n2C(C(=O)N2C[C@@H](F)[C@@H](F)C2)C1 (mixture of isomers) [Example 336, (5RS,7RS)-5-{[(3R,4S)-3,4-Difluoropyrrolidin-1-yl]carbonyl}-7-methyl-2-{[6-(trifluoromethyl)pyridin-3-yl]methyl}-5,6,7,8-tetrahydro[1,2,4]triazolo[4,3-a]pyridin-3(2H)-one]
7 | 425 | O=C([C@@H]1CCCc2nn(Cc3ccc(C(F)(F)F)c(F)c3)c(=O)n21)N1CC[C@H](F)C1 [Example 471, (5S)-5-{[(3S)-3-Fluoropyrrolidin-1-yl]carbonyl}-2-[3-fluoro-4-(trifluoromethyl)benzyl]-5,6,7,8-tetrahydro[1,2,4]triazolo[4,3-a]pyridin-3(2H)-one]
8 | 43500 | Cc1ccc(Cn2nc3n(c2=O)[C@H](C(=O)N2CCC[C@@H]2C)CCC3)cc1 [Example 127, 2-(4-Methylbenzyl)-(5S)-{[(2S)-2-methylpyrrolidin-1-yl]carbonyl}-5,6,7,8-tetrahydro[1,2,4]triazolo[4,3-a]pyridin-3(2H)-one]
9 | 670 | O=C([C@@H]1CCCc2nn(Cc3cnc(C(F)(F)F)c(Cl)c3)c(=O)n21)N1CCCC1 [Example 545, (5S)-2-{[5-Chloro-6-(trifluoromethyl)pyridin-3-yl]methyl}-5-(pyrrolidin-1-ylcarbonyl)-5,6,7,8-tetrahydro[1,2,4]triazolo[4,3-a]pyridin-3(2H)-one]
10 | 940 | O=C([C@@H]1CCCc2nn(Cc3ncc(Cl)cc3F)c(=O)n21)N1CCSC1 [Example 507, (5S)-2-[(5-Chloro-3-fluoropyridin-2-yl)methyl]-5-(1,3-thiazolidin-3-ylcarbonyl)-5,6,7,8-tetrahydro[1,2,4]triazolo[4,3-a]pyridin-3(2H)-one]
11 | 440 | O=C([C@@H]1CCCc2nn(Cc3nccc(C(F)(F)F)c3Cl)c(=O)n21)N1CCCC1 [Example 533, (5S)-2-{[3-Chloro-4-(trifluoromethyl)pyridin-2-yl]methyl}-5-(pyrrolidin-1-ylcarbonyl)-5,6,7,8-tetrahydro[1,2,4]triazolo[4,3-a]pyridin-3(2H)-one]
12 | 415 | Cc1ccc(Cn2nc3n(c2=O)C(C(=O)N2CCCC2)CCC3C)cc1 (racemic) [Example 223, (5RS,8RS)-8-Methyl-2-(4-methylbenzyl)-5-(pyrrolidin-1-ylcarbonyl)-5,6,7,8-tetrahydro[1,2,4]triazolo[4,3-a]pyridin-3(2H)-one]
13 | 2200 | O=C(C1CCCc2nn(Cc3cccc(F)c3)c(=O)n21)N1CCCC1 (racemic) [Example 16, (5RS)-2-(3-Fluorobenzyl)-5-(pyrrolidin-1-ylcarbonyl)-5,6,7,8-tetrahydro[1,2,4]triazolo[4,3-a]pyridin-3(2H)-one]
14 | 440 | O=C([C@@H]1CCCc2nn(Cc3cc(F)c(F)cc3F)c(=O)n21)N1CC(F)C1 [Example 491, (5S)-5-[(3-Fluoroazetidin-1-yl)carbonyl]-2-(2,4,5-trifluorobenzyl)-5,6,7,8-tetrahydro[1,2,4]triazolo[4,3-a]pyridin-3(2H)-one]
15 | 320 | O=C([C@@H]1CCCc2nn(Cc3cc(F)c(F)cc3F)c(=O)n21)N1CC[C@H](F)C1 [Example 493, (5S)-5-{[(3S)-3-Fluoropyrrolidin-1-yl]carbonyl}-2-(2,4,5-trifluorobenzyl)-5,6,7,8-tetrahydro[1,2,4]triazolo[4,3-a]pyridin-3(2H)-one]
16 | 18000 | O=C([C@@H]1CCCc2nn(Cc3cc(C(F)(F)F)nc4ccccc34)c(=O)n21)N1CC[C@H](O)C1 [Example 496, (5S)-5-{[(3S)-3-Hydroxypyrrolidin-1-yl]carbonyl}-2-{[2-(trifluoromethyl)quinolin-4-yl]methyl}-5,6,7,8-tetrahydro[1,2,4]triazolo[4,3-a]pyridin-3(2H)-one]
17 | 285 | O=C([C@@H]1CCCc2nn(Cc3ccc(Cl)c(F)c3)c(=O)n21)N1C[C@@H](F)[C@@H](F)C1 [Example 462, (5S)-2-(4-Chloro-3-fluorobenzyl)-5-{[(3R,4S)-3,4-difluoropyrrolidin-1-yl]carbonyl}-5,6,7,8-tetrahydro[1,2,4]triazolo[4,3-a]pyridin-3(2H)-one]
18 | 21300 | Cc1ccc(Cn2nc3n(c2=O)[C@H](C(=O)N2CC[C@@H]2C)CCC3)cc1 [Example 148, (5S)-5-{[(2S)-2-Methylazetidin-1-yl]carbonyl}-2-(4-methylbenzyl)-5,6,7,8-tetrahydro[1,2,4]triazolo[4,3-a]pyridin-3(2H)-one]
19 | 73000 | O=C(C1CC(C(F)(F)F)Cc2nn(Cc3ccc(Cl)nc3)c(=O)n21)N1CC(F)C1 (single isomer, unassigned) [Example 238, (5RS,7RS)-2-[(6-Chloropyridin-3-yl)methyl]-5-[(3-fluoroazetidin-1-yl)carbonyl]-7-(trifluoromethyl)-5,6,7,8-tetrahydro[1,2,4]triazolo[4,3-a]pyridin-3(2H)-one]
20 | 730 | Cc1ccc(Cn2nc3n(c2=O)[C@H](C(=O)N2CCCC2)CCC3)cc1 [Example 26, (5S)-2-(4-Methylbenzyl)-5-(pyrrolidin-1-ylcarbonyl)-5,6,7,8-tetrahydro[1,2,4]triazolo[4,3-a]pyridin-3(2H)-one]
21 | 15000 | O=C(C1C(C(F)(F)F)CCc2nn(Cc3ncc(Cl)cc3Cl)c(=O)n21)N1CC[C@H](F)C1 (mixture of isomers) [Example 282, (5RS,6RS)-2-[(3,5-Dichloropyridin-2-yl)methyl]-5-{[(3S)-3-fluoropyrrolidin-1-yl]carbonyl}-6-(trifluoromethyl)-5,6,7,8-tetrahydro[1,2,4]triazolo[4,3-a]pyridin-3(2H)-one]
22 | 4100 | Cc1ccc(C(C)n2nc3n(c2=O)[C@H](C(=O)N2CCCC2)CCC3)cc1 (mixture of isomers) [Example 502, (5S)-2-[(1 RS)-1-(4-Methylphenyl)ethyl]-5-(pyrrolidin-1-ylcarbonyl)-5,6,7,8-tetrahydro[1,2,4]triazolo[4,3-a]pyridin-3(2H)-one]
23 | 425 | N#C[C@@H]1CCCN1C(=O)[C@@H]1CCCc2nn(Cc3csc(C(F)(F)F)n3)c(=O)n21 [Example 367, (2S)-1-{[(5S)-3-Oxo-2-{[2-(trifluoromethyl)-1,3-thiazol-4-yl]methyl}-2,3,5,6,7,8-hexahydro[1,2,4]triazolo[4,3-a]pyridin-5-yl]carbonyl}pyrrolidine-2-carbonitrile]
24 | 170 | O=C([C@@H]1CCCc2nn(Cc3ccc(C(F)(F)F)c(F)c3)c(=O)n21)N1CC(F)C1 [Example 473, (5S)-5-[(3-Fluoroazetidin-1-yl)carbonyl]-2-[3-fluoro-4-(trifluoromethyl)benzyl]-5,6,7,8-tetrahydro[1,2,4]triazolo[4,3-a]pyridin-3(2H)-one]
25 | 2800 | Cc1ccc(Cn2nc3n(c2=O)[C@H](C(=O)N2CC4(C2)CC4(F)F)CCC3)cc1 [Example 191, (5S)-5-[(1,1-Difluoro-5-azaspiro[2.3]hex-5-yl)carbonyl]-2-(4-methylbenzyl)-5,6,7,8-tetrahydro[1,2,4]triazolo[4,3-a]pyridin-3(2H)-one]
